Measurements as given in patent US12331040B2 (Karyopharm Therapeutics Inc., priority 2013, dated 2025).

Tests used:
[1] = system: cancer cell lines; test: 72-hour MTT cell proliferation assay, summary over the cancer cell lines tested; format: cell-based
Description: (§1) The MTT cell proliferation assay was used to study the cytotoxic properties of the compounds. The assay was performed according to the method described by Roche Molecular Biochemicals, with minor modifications. The assay is based on the cleavage of the tetrazolium salt, MTT, in the presence of an electron-coupling reagent. The water-insoluble formazan salt produced must be solubilized in an additional step. Cells grown in a 96-well tissue culture plate were incubated with the MTT solution for approximately 4 hours. After this incubation period, a water-insoluble formazan dye formed. After solubilization, the formazan dye was quantitated using a scanning multi-well spectrophotometer (ELISA reader). […] The cells were seeded at 5,000-10,000 cells in each well of 96-well plate in 100 μL of fresh culture medium and were allowed to attach overnight. The stock solutions of the compounds were diluted in 100 μL cell culture medium to obtain eight concentrations of each test compound, ranging from 1 nM to 30 μM. […] All optical densities were measured at 490 nm using a Vmax Kinetic Microplate Reader (Molecular Devices). In most cases, the assay was performed in duplicate and the results were presented as a mean percent inhibition to the negative control±SE. The following formula was used to calculate the percent of inhibition: Inhibition (%)=(1−(ODo/OD))×100.
(§2) Compounds 504, 510, 525 and 585 were further tested against selected solid and hematological cancer cell lines and selected normal cell lines in a 72-hour MTT cell proliferation assay.

[2] = system: U2OS cells; test: Western blots of autophagy, stress and cell cycle markers in U2OS cells; format: cell-based, human; details: 1 μM or 10 μM, 48 hours, Western blot
Description: U2OS cells were plated in a 6-well plate overnight. The next day, the cells were treated with 1 μM or 10 μM Compound 585 for 48 hours, then collected and lysed in RIPA buffer. The lysate was run on SDS-PAGE and Western blots of PAK4, PUMA, CHOP, p21, cyclin D, MLH1, p-AMPK, AMPK and LC3 were performed.

[3] = system: Z-138 xenografts; test: Z-138 mantle cell lymphoma xenograft in SCID mice; format: in vivo; design: toxicity (side effects, weight loss): dose or concentration left out as unconfirmed
Description: The impact of Compound 585 on tumor growth was tested using a Z-138 mantle cell lymphoma cancer xenograft model in SCID mice. Z-138 (ATCC #CRL-3001) mantle cell lymphoma cells were obtained from ATCC. These cells were grown in IMEM medium supplemented with 10% horse serum, 1% penicillin and streptomycin, and 2 mM L-glutamine. Cells were sub-cultured by dilution at a ratio of 1:5 to 1:10. Z-138 cells were harvested by centrifugation and counted using a hemocytometer. Cells were resuspended in PBS at a 2×10^8 cells per mL. Cells were placed on ice and mixed with an equal volume of Matrigel (BD Biosciences CB-40234). This mixture was kept on ice and injected into the left flank of mice in a volume of 0.2 mL, equivalent to 2×10^7 cells per mouse. Forty (40) CB-17 SCID mice were inoculated subcutaneously in the left flank with 2×10^7 Z-138 cells. Treatment was initiated when the tumors reached a mean volume of 125.2 mm^3. Mice were allocated to five (5) groups of eight (8) mice such that mean tumor volume in each group was within the range of 106.5 to 138.8 mm^3. Mice were treated with vehicle, standard of care/positive control drug (cyclophosphamide), or Compound 585. […] Animal weights and conditions were recorded daily, and tumors were measured on Mondays, Wednesdays and Fridays.

[4] = system: U2OS cells; test: BrdU incorporation and cell cycle analysis by flow cytometry in U2OS cells; format: cell-based, human; details: 1 μM, BrdU/7-AAD flow cytometry
Description: U2OS cells were treated with DMSO or 1 μM Compound 585 for one, two or three days. At each time point, cells were treated with 10 μM BrdU for 2 hours, and then collected by trypsinization. Cells were subsequently washed, fixed and stained for BrdU and total DNA (7-AAD). BrdU incorporation and cell cycle analysis was performed using flow cytometry on a BD Fortessa Analyzer. Data was then analyzed using FCS Express 4 software.

[5] = system: PAK4 signalling in IMR-90 cells; test: Western blots of PAK4 signalling in normal cells (IMR-90); format: cell-based; details: IMR-90 normal cell line; 72-hour treatment, increasing concentrations; Western blot
Description: Normal human dermal fibroblasts (NHDF) and normal lung cells (IMR-90) were treated with Compound 585 for 72 hours, at which time the cells were lysed in RIPA buffer. The lysates were run on SDS-PAGE and Western blots of phospho-PAK4, PAK4, phospho-cofilin, cofilin, phospho-β-catenin, β-catenin, PARP and caspase-3 were performed.

[6] = system: SK-CO-1 cells; test: MTT cell proliferation assay; format: cell-based; details: Homo sapiens, 72-hour MTT
Description: as §1, §2

[7] = system: normal cells; test: 72-hour MTT cell proliferation assay, summary over the normal cell lines tested; format: cell-based; details: normal cells (n=10): NHDF, 3T3, NHEK, IMR-90, PBMC, ARPE-19, HS738.st, WI-38, MRC-5, RWPE-1
Description: as §1, with “(%)=(1−(ODo/OD))×100. […]” for “(%)=(1−(ODo/OD))×100.”

[8] = system: Hep 3B xenografts; test: Hep3B hepatocellular carcinoma xenograft in SCID mice; format: in vivo
Description: The effects of Compound 585 were evaluated on tumor growth using a Hep3B hepatocellular carcinoma xenograft model in SCID mice. Hep 3B (ATCC […]) hepatocellular carcinoma cells were obtained from ATCC. These cells were grown in DMEM medium supplemented with 10% fetal bovine serum and 1% penicillin and streptomycin. Cells were sub-cultured by dilution at a ratio of 1:4. Hep3B cells were harvested by centrifugation and counted using a hemocytometer. Cells were resuspended in PBS at a 5×10^7 cells per mL. Cells were placed on ice, then mixed with an equal volume of Matrigel™ (BD Biosciences CB-40234). This mixture was kept on ice and injected into the left flank of mice in a volume of 0.2 mL, equivalent to 5×10^6 cells per mouse. Thirty-two (32) SCID mice were inoculated subcutaneously in the left flank with 5×10^6 Hep 3B cells. Treatment was initiated when the tumors reached a mean volume of 103.7 mm3 (standard deviation±30 mm^3, range 17-183 mm^3). Mice were allocated to four (4) groups of eight (8) mice such that mean tumor volume in each group was within the range of 95 to 104 mm^3. Mice were treated with vehicle, standard of care control (doxorubicin), or Compound 585. With the exception of doxorubicin (which was given IP), all compounds were given by oral gavage. […] Animal weights and conditions were recorded daily, and tumors were measured on Mondays, Wednesdays and Fridays.

SMILES: Nc1ccc(/C=C/C(=O)NCc2cc3cc(-c4ccc(C(=O)N5CCC(F)(F)CC5)cn4)cc(C(F)(F)F)c3o2)cn1 [Compound 585, (E)-3-(6-aminopyridin-3-yl)-N-((5-(5-(4,4-difluoropiperidine-1-carbonyl)pyridin-2-yl)-7-(trifluoromethyl)benzofuran-2-yl)methyl)acrylamide]
- share of the hematological cancer cell lines tested with an IC50 of less than 500 nM ([1]; 30/33 hematological cancer cell lines): 91%
- share of the solid cancer cell lines tested with an IC50 of less than 500 nM ([1]; 42/93 solid cancer cell lines): 45%
- share of the cancer cell lines tested with an IC50 of less than 1 μM ([1]; 91/126 cancer cell lines): 72%
- cell cycle proteins, p21 and cyclin D1 [2]: reduced
- markers of stress response and autophagy (AMPK phosphorylation, short form of LC3 lysosome marker) [2]: induced markers of stress response and autophagy
- mean tumor volume of Z-138 xenografts ([3]; SCID mice, 10, 30, or 60 mg/kg PO daily): tumor growth inhibition and even tumor regression
- toxicity (side effects, weight loss) ([3]; Z-138 xenograft model, minimal or no side effects or weight loss up to daily dose): without major toxicity
- cell cycle changes: Sub-G1 phase [4]: started to appear around 48-72 hours
- cell cycle changes: S phase and G2 phase ([4]; at 48-72 hours): loss of S phase and increase in G2 phase
- effect on PAK4 signalling (phospho-PAK4, PAK4, phospho-cofilin, cofilin, phospho-β-catenin, β-catenin, PARP, caspase 3) [5]: little to no effect
- IC50 [6]: 1.19 µM
- inhibition of normal cells [7]: did not inhibit
- toxicity (side effects, weight loss) ([8]; Hep 3B xenograft model, minimal or no side effects or weight loss up to 200 mg/kg daily dose): without major toxicity
- mean tumor volume of Hep 3B xenografts ([8]; SCID mice, 20 or 60 mg/kg PO daily): tumor growth inhibition
